# Data taken from patent US10934310B2, “Inhibitors of Bruton's tyrosine kinase and method of their use” (JANSSEN PHARMACEUTICA NV, priority 2015, dated 2021).
# Target: unphosphorylated-BTK kinase domain (UP-BTK), GST-tagged human BTK (389-659aa) (Homo sapiens (Human), UniProt Q06187)
# Experiment: BTK Kinase Lanthascreen Binding Assay
# Settings: for BTK_I_binding pIC50: compound, 50 nM Tracer 236, 2 nM anti-GST antibody, 60 minutes, pIC50 = negative log of the IC50 in molar; for IC50: read-out: BTK_I_binding pIC50 (converted)
# Description: BTK Kinase Lanthascreen Binding Assay:
# A BTK kinase lanthascreen binding assay monitors compound binding to unphosphorylated-BTK kinase domain (UP-BTK), by competing with a fluorescent labeled tracer. […] Data were analyzed using Xlfit™ version 5.3 from ID Business Solutions (Guildford), Microsoft Excel add-in. pIC50 refers to the negative log of the IC50 in molar.
# Sequence of unphosphorylated-BTK kinase domain (UP-BTK), GST-tagged human BTK (389-659aa) (Q06187 389-659): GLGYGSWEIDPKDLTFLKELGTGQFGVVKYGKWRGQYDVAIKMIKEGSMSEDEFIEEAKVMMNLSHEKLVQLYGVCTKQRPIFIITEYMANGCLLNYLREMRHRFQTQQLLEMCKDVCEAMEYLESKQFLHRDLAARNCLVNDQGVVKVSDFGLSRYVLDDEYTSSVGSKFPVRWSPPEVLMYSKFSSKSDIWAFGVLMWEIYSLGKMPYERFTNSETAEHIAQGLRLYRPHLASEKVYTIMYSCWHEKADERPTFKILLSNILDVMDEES
Structure (SMILES),BTK_I_binding pIC50,IC50
"N[C@H]1CC[C@H](NC(=O)c2sc3nccc4c3c2NC(=O)N4c2ccc(Oc3ccccc3)cc2)CC1 [Example 146, N-(trans-(1R,4R)-4-Aminocyclohexyl)-4-oxo-5-(4-phenoxyphenyl)-4,5-dihydro-3H-1-thia-3,5,8-triazaacenaphthylene-2-carboxamide]",6.66,–
"N[C@H]1CCC[C@@H]1NC(=O)c1sc2nccc3c2c1NC(=O)N3c1ccc(Oc2ccccc2)cc1 [Example 148, N-((1S,2S)-2-Aminocyclopentyl)-4-oxo-5-(4-phenoxyphenyl)-4,5-dihydro-3H-1-thia-3,5,8-triazaacenaphthylene-2-carboxamide]",6.47,–
"N[C@@H]1CCCC[C@H]1NC(=O)c1sc2nccc3c2c1NC(=O)N3c1ccc(Oc2ccccc2)cc1 [Example 149, N-((1R,2R)-2-Aminocyclohexyl)-4-oxo-5-(4-phenoxyphenyl)-4,5-dihydro-3H-1-thia-3,5,8-triazaacenaphthylene-2-carboxamide]",6.45,–
"CC(C)(C)OC(=O)N[C@@H]1CC[C@H](NC(=O)c2sc3nccc4c3c2NC(=O)N4c2ccc(Oc3ccccc3)cc2)C1 [Example 150, tert-Butyl ((1R,3S)-3-(4-oxo-5-(4-phenoxyphenyl)-4,5-dihydro-3H-1-thia-3,5,8-triazaacenaphthylene-2-carboxamido)cyclopentyl)carbamate]",6.40,–
"CC(C)(C)OC(=O)N[C@H]1CC[C@H](NC(=O)c2sc3nccc4c3c2NC(=O)N4c2ccc(Oc3ccccc3)cc2)CC1 [Example 151, tert-Butyl trans-((1R,4R)-4-(4-oxo-5-(4-phenoxyphenyl)-4,5-dihydro-3H-1-thia-3,5,8-triazaacenaphthylene-2-carboxamido)cyclohexyl)carbamate]",6.33,–
"O=C(NCC1(O)CCCCC1)c1sc2nccc3c2c1NC(=O)N3c1ccc(Oc2ccccc2)cc1 [Example 152, N-((1-Hydroxycyclohexyl)methyl)-4-oxo-5-(4-phenoxyphenyl)-4,5-dihydro-3H-1-thia-3,5,8-triazaacenaphthylene-2-carboxamide]",6.25,–
"Cc1cc(OC(C)C)ccc1N1C(=O)Nc2c(C(=O)N[C@H]3CC[C@@H](NC(=O)/C=C/CN(C)C)C3)sc3nccc1c23 [Example 153, N-((1S,3R)-3-((E)-4-(Dimethylamino)but-2-enamido)cyclopentyl)-5-(4-isopropoxy-2-methylphenyl)-4-oxo-4,5-dihydro-3H-1-thia-3,5,8-triazaacenaphthylene-2-carboxamide]",6.44,–
"O=C(N[C@H]1CCC[C@@H](O)C1)c1sc2nccc3c2c1NC(=O)N3c1ccc(Oc2ccccc2)cc1 [Example 157, N-((1S,3R)-3-Hydroxycyclohexyl)-4-oxo-5-(4-phenoxyphenyl)-4,5-dihydro-3H-1-thia-3,5,8-triazaacenaphthylene-2-carboxamide]",6.19,–
"Cc1cc(OC(C)C)ccc1N1C(=O)Nc2c(C(=O)N[C@H]3CC[C@@H](NC(=O)CN(C)C)C3)sc3nccc1c23 [Example 158, N-((1S,3R)-3-(2-(Dimethylamino)acetamido)cyclopentyl)-5-(4-isopropoxy-2-methylphenyl)-4-oxo-4,5-dihydro-3H-1-thia-3,5,8-triazaacenaphthylene-2-carboxamide]",6.11,–
"CCC(=O)N[C@@H]1CCC[C@@H]1NC(=O)c1sc2nccc3c2c1NC(=O)N3c1ccnc(-c2ccccc2)c1 [Example 159, 4-Oxo-5-(2-phenylpyridin-4-yl)-N-((1S,2R)-2-propionamidocyclopentyl)-4,5-dihydro-3H-1-thia-3,5,8-triazaacenaphthylene-2-carboxamide]",–,> 1000 nM
"Cc1cc(OC(C)C)ccc1N1C(=O)Nc2c(C(=O)N[C@@H]3CCCC[C@@H]3N)sc3nccc1c23 [Example 160, N-((1R,2S)-2-Aminocyclohexyl)-5-(4-isopropoxy-2-methylphenyl)-4-oxo-4,5-dihydro-3H-1-thia-3,5,8-triazaacenaphthylene-2-carboxamide]",–,> 1000 nM
"CNCC(=O)N[C@@H]1CC[C@H](NC(=O)c2sc3nccc4c3c2NC(=O)N4c2ccc(OC(C)C)cc2C)C1 [Example 161, 5-(4-Isopropoxy-2-methylphenyl)-N-((1S,3R)-3-(2-(methylamino)acetamido)cyclopentyl)-4-oxo-4,5-dihydro-3H-1-thia-3,5,8-triazaacenaphthylene-2-carboxamide]",–,> 1000 nM
"CC(C)(C)OC(=O)N[C@H]1CC[C@@H](NC(=O)c2sc3nccc4c3c2NC(=O)N4c2ccc(Oc3ccccc3)cc2)CC1 [Example 163, tert-Butyl ((1S,4S)-4-(4-oxo-5-(4-phenoxyphenyl)-4,5-dihydro-3H-1-thia-3,5,8-triazaacenaphthylene-2-carboxamido)cyclohexyl)carbamate]",5.43,–
"N[C@@H]1CC[C@H](NC(=O)c2sc3nccc4c3c2NC(=O)N4c2ccc(Oc3ccccc3)cc2)C1 [Example 164, N-((1S,3R)-3-Aminocyclopentyl)-4-oxo-5-(4-phenoxyphenyl)-4,5-dihydro-3H-1-thia-3,5,8-triazaacenaphthylene-2-carboxamide]",5.19,–
"C=CC(=O)N[C@H]1CCC[C@H]1NC(=O)c1sc2nccc3c2c1NC(=O)N3c1cc(-c2ccccc2)ncn1 [Example 167, N-((1R,2S)-2-Acrylamidocyclopentyl)-4-oxo-5-(6-phenylpyrimidin-4-yl)-4,5-dihydro-3H-1-thia-3,5,8-triazaacenaphthylene-2-carboxamide]",8.34,–
"C=CC(=O)N[C@H]1CCCC[C@H]1NC(=O)c1sc2nccc3c2c1NC(=O)N3c1ccnc(-c2ccccc2)c1 [Example 168, N-((1R,2S)-2-Acrylamidocyclohexyl)-4-oxo-5-(2-phenylpyridin-4-yl)-4,5-dihydro-3H-1-thia-3,5,8-triazaacenaphthylene-2-carboxamide]",8.10,–
"C=CC(=O)N[C@H]1CCC[C@H]1NC(=O)c1sc2nccc3c2c1NC(=O)N3c1ccnc(-c2ccccc2)c1 [Example 169, N-((1R,2S)-2-Acrylamidocyclopentyl)-4-oxo-5-(2-phenylpyridin-4-yl)-4,5-dihydro-3H-1-thia-3,5,8-triazaacenaphthylene-2-carboxamide]",8.26,–
"C=CC(=O)N[C@H]1CCCC[C@H]1NC(=O)c1sc2nccc3c2c1NC(=O)N3c1ccc(Oc2ccccc2)nc1 [Example 172, N-((1R,2S)-2-Acrylamidocyclohexyl)-4-oxo-5-(6-phenoxypyridin-3-yl)-4,5-dihydro-3H-1-thia-3,5,8-triazaacenaphthylene-2-carboxamide]",8.35,–
"C=CC(=O)N[C@@H]1CCC[C@H]1NC(=O)c1sc2nccc3c2c1NC(=O)N3c1ccc(Oc2ccccc2)nc1 [Example 177, N-((1R,2R)-2-Acrylamidocyclopentyl)-4-oxo-5-(6-phenoxypyridin-3-yl)-4,5-dihydro-3H-1-thia-3,5,8-triazaacenaphthylene-2-carboxamide]",7.49,–
"C=CC(=O)N[C@H]1CCC[C@H]1NC(=O)c1sc2nccc3c2c1NC(=O)N3c1ccc(Oc2ccccc2)nc1 [Example 178, N-((1R,2S)-2-Acrylamidocyclopentyl)-4-oxo-5-(6-phenoxypyridin-3-yl)-4,5-dihydro-3H-1-thia-3,5,8-triazaacenaphthylene-2-carboxamide]",8.28,–
"C=CC(=O)N[C@H]1CCC[C@H]1NC(=O)c1sc2nccc3c2c1NC(=O)N3c1ccc(Oc2ccccc2)cn1 [Example 179, N-((1R,2S)-2-Acrylamidocyclopentyl)-4-oxo-5-(5-phenoxypyridin-2-yl)-4,5-dihydro-3H-1-thia-3,5,8-triazaacenaphthylene-2-carboxamide]",8.37,–
"C=CC(=O)N[C@H]1CCCC[C@H]1NC(=O)c1sc2nccc3c2c1NC(=O)N3c1cnc(OC2CCC2)cc1C [Example 183, N-((1R,2S)-2-Acrylamidocyclohexyl)-5-(6-cyclobutoxy-4-methylpyridin-3-yl)-4-oxo-4,5-dihydro-3H-1-thia-3,5,8-triazaacenaphthylene-2-carboxamide]",7.58,–
"C=CC(=O)N[C@@H]1CC[C@@H](NC(=O)c2sc3nccc4c3c2NC(=O)N4c2ccc(Oc3ccccc3)cc2C)C1 [Example 184, N-((1R,3R)-3-Acrylamidocyclopentyl)-5-(2-methyl-4-phenoxyphenyl)-4-oxo-4,5-dihydro-3H-1-thia-3,5,8-triazaacenaphthylene-2-carboxamide]",7.55,–
"C=CC(=O)N[C@@H]1CCC[C@H]1NC(=O)c1sc2nccc3c2c1NC(=O)N3c1ccc(Oc2ccccc2)cn1 [Example 185, N-((1R,2R)-2-Acrylamidocyclopentyl)-4-oxo-5-(5-phenoxypyridin-2-yl)-4,5-dihydro-3H-1-thia-3,5,8-triazaacenaphthylene-2-carboxamide]",7.56,–
"C=CC(=O)N[C@H]1CCCC[C@H]1NC(=O)c1sc2nccc3c2c1NC(=O)N3c1ccc(OC2CCC2)nc1C [Example 187, N-((1R,2S)-2-Acrylamidocyclohexyl)-5-(6-cyclobutoxy-2-methylpyridin-3-yl)-4-oxo-4,5-dihydro-3H-1-thia-3,5,8-triazaacenaphthylene-2-carboxamide]",7.30,–
"C=CC(=O)N[C@H]1CCC[C@H]1NC(=O)c1sc2nccc3c2c1NC(=O)N3c1cc(-c2ccccc2)ccn1 [Example 189, N-((1R,2S)-2-Acrylamidocyclopentyl)-4-oxo-5-(4-phenylpyridin-2-yl)-4,5-dihydro-3H-1-thia-3,5,8-triazaacenaphthylene-2-carboxamide]",8.23,–
